Assay results as given in patent US8598217B2, “Imidazole derivatives and their use as modulators of cyclin dependent kinases” (Astex Therapeutics Ltd., priority 2009, dated 2013).

What follows are compounds tested against CDK4/cyclin D1 (Homo sapiens (Human), UniProt P11802) (assay: CDK4/cyclin D1 enzymatic activity assay (Protocol A, Lance TR-FRET)). Settings: CDK4/cyclin D1, 175 nM pRb152, 3 μM ATP, 60 min, room temperature; read-out: IC50 against CDK4 kinase.
Type: biochemical
Protocol: A 384-well microtiter Lance TR-FRET (time-resolved-fluorescence energy transfer) endpoint assay was used for CDK4/cyclin D1 kinase activity measurements. The same assay was used for IC50 determination of small molecule inhibitors. In general, the kinase reactions were carried out in 30 μL volumes in the reaction solution containing the following: 2 μL compound (in 20% DMSO), 18 uL CDK4/cyclin D1 in Assay Buffer (50 mM HEPES, pH 7.5, 5 mM MgCl2, 2 mM MnCl2, 1 mM DTT, 0.05% BSA, 0.02% Tween-20), 10 μL of the mixture of pRb152 and ATP. The final reaction mixture contains compound (inhibitor) with the concentration varying from […], 2% DMSO, 0.3 nM CDK4/cyclin D1, 175 nM pRb152, and 3 μM ATP (Amersham Pharmacia, Cat. No. 27-2056-01). All reactions were run at room temperature in 384-well white flat-bottom OptiPlates (Perkin Elmer, Cat. No. 6007290) for 60 min then were quenched by the addition of 10 μL of 120 mM EDTA. The signals were captured by the addition of 40 μL of the Detection Solution containing the following: Detection Buffer (50 mM HEPES, pH 7.5, 30 mM EDTA, 0.1% Triton x-100, 0.05% BSA), 70 ng/mL anti-phospho-pRb(S780) (Cell Signaling Technology, Cat. No. 9307S), 1 nM Lance Eu-W1024-Rabbit anti-IgG (Perkin Elmer, Cat. No. AD0082), and 20 nM SureLight™ Allophycocyanin-Streptavidin (Perkin Elmer, Cat. No. CR130-100). The resulted solutions were incubated at room temperature for 2 hours before read on the Evision Multilabel Reader (Perkin Elmer, Envision 2102-0010). Note: IC50<0.005 nM or IC50>10 μM indicates the true IC50 is out of detection range.
CDK4/cyclin D1 recombinant protein used in the enzymatic activity assay was prepared by coexpressing pDEST10-CDK4 (N-terminal His6) and pFastBacDual-GST-hCyclinD1 viruses in Sf21 cells. The overexpressed protein was purified by Ni-NTA affinity pull down to >80% pure by Sizing HPLC.

CDK4/cyclin D1, sequence (P11802 whole entry): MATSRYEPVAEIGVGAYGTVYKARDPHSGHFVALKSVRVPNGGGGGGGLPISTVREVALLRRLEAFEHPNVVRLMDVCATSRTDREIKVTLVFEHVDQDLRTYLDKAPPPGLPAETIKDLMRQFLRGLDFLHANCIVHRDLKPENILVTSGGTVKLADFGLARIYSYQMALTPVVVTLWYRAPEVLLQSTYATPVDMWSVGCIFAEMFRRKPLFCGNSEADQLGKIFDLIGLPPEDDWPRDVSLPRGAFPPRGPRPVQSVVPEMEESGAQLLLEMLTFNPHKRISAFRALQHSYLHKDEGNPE
CDK4/cyclin D1, sequence (P24385 whole entry partner): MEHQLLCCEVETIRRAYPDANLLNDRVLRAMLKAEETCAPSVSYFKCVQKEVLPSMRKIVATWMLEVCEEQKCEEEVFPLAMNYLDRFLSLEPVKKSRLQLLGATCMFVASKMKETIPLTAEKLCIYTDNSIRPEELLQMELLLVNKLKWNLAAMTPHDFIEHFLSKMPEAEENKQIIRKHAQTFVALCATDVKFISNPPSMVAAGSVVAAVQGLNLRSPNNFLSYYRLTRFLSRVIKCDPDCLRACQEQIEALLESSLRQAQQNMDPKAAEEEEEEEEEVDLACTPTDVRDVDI

IC50 [nM] | SMILES
5 | Cc1ncc2ccccc2c1-c1cc(C(=O)c2nc3cc(C(=O)N4CCNCC4)ccc3[nH]2)ccc1C#N [Example 174, 2-(3-Methyl-isoquinolin-4-yl)-4-[5-(piperazine-1-carbonyl)-1H-benzoimidazole-2-carbonyl]-benzonitrile]
26 | CN1CCC(NC(=O)c2ccc3nc(C(=O)c4ccnc(-c5cncc6ccccc56)c4)[nH]c3c2)CC1 [Example 99, 2-(2-Isoquinolin-4-yl-pyridine-4-carbonyl)-3H-benzoimidazole-5-carboxylic acid (1-methyl-piperidin-4-yl)-amide]
14 | O=C(c1ccnc(-c2cncc3ccccc23)c1)c1nc2ccc(N3CCCNCC3)nc2[nH]1 [Example 163, (5-[1,4]Diazepan-1-yl-3H-imidazo[4,5-b]pyridine-2-yl)-(2-isoquinolin-4-yl-pyridin-4-yl)-methanone]
24 | O=C(c1ccnc(-c2cncc3ccccc23)c1)c1nc2ccc(N3CCNCC3)nc2[nH]1 [Example 164]

Same assay, conditions: CDK4/cyclin D1, 175 nM pRb152, 3 μM ATP; bound stated; read-out: IC50 values against CDK4

IC50 [nM] | SMILES
< 10000 | Cc1nn(C)c(C)c1-c1cc(C(=O)c2nc3ccc(N4CC5(CNC5)C4)nc3[nH]2)ccc1C#N [Example 207, 4-[5-(2,6-Diaza-spiro[3.3]hept-2-yl)-3H-imidazo[4,5-b]pyridine-2-carbonyl]-2-(1,3,5-trimethyl-1H-pyrazol-4-yl)-benzonitrile]
< 10000 | CN(C)C1CCN(c2ncc3nc(C(=O)c4ccnc(-c5cncc6ccccc56)c4)[nH]c3n2)CC1 [Example 133, [2-(4-Dimethylamino-piperidin-1-yl)-9H-purin-8-yl]-(2-isoquinolin-4-yl-pyridin-4-yl)-methanone]
< 10000 | CN1CCC(NC(=O)c2ccc3nc(C(=O)c4ccnc(-c5cncc6ccccc56)c4)[nH]c3c2)CC1 [Example 99, 2-(2-Isoquinolin-4-yl-pyridine-4-carbonyl)-3H-benzoimidazole-5-carboxylic acid (1-methyl-piperidin-4-yl)-amide]
< 10000 | CNS(=O)(=O)c1ccccc1-c1cc(C(=O)c2nc3ccc(N4CCC(N(C)C)CC4)cc3[nH]2)ccn1 [Example 120, 2-{4-[6-(4-Dimethylamino-piperidin-1-yl)-1H-benzoimidazole-2-carbonyl]-pyridin-2-yl}-N-methyl-benzenesulfonamide]
